From patent US20250066349A1 (Prothena Biosciences Limited, priority 2021, published 2025)

Columns and labels:
DYRK1A [1] = target: T1, DYRK1A (Homo sapiens (Human), UniProt Q13627); test: DYRK1A Inhibition Assay; format: biochemical; details: Compounds of Formula (I); DYRK1A 1 nM, ATP 20 μM, Ser/Thr 18 peptide 2 μM, 90 minutes; read-out: DYRK1 IC50
Description: DYRK1A—Invitrogen #PV4105
• Ser/Thr 18 peptide—Invitrogen #PR8227U • Phos-Ser/Thr 18 peptide—Invitrogen #PR8229U • Assay plate—PerkinElmer #6007279 • ATP—Sigma #A7699-5G • Development reagent A—Invitrogen #PR5194B • Development buffer—Invitrogen #PR4876B Compound preparation • 1. Test compounds were diluted to 1 mM in DMSO • 2. Stock was further diluted 3-fold using Echo platform • 3. 100 nL of DMSO into Columns 1 and 24 and 100 nL of compounds dilutions to Columns 2-23 in a plate.
• 1. Add 5 μL enzyme & substrate mixture to each well in Column 2-23 and A24-H24 wells of the 384-well assay plate; • 2. Add 5 μL 0% Phosphorylation control to A1-H1 and I24-P24 wells of the assay plate; • 3. Add 5 μL 100% Phosphorylation control to I1-P1 wells of the assay plate; • 4. Spin the assay plate (1000 rpm, 1 minute @23° C.); • 5. Incubate enzyme with compounds for 15 minutes at 23° C.; • 6. Add 5 μL ATP solution to each well of the assay plate; • 7. Spin the plate (1000 rpm, 1 minute @23° C.); • 8. Incubate the assay plate for 90 minutes at 23° C.; • 9. Add 10 μL Development reagent A to each well of the assay plate; • 10. Centrifuge the plate at 1000 rpm about 15 seconds and seal a film over assay plate. Incubate the assay plate for 30 minutes at 23° C. • 11. Read assay plates on Envision (see Tables A-D).
Final Compound Concentrations
• Assay buffer: 50 mM Hepes pH7.5, 10 mM MgCl2, 1 mM EDTA, 0.01% Brij-35 • DYRK1A: 1 nM • ATP: 20 μM • Ser/Thr 18 peptide: 2 μM • Reaction time: 90 minutes

DYRK1A [2] = target: T1, DYRK1A; details: cited from earlier work

Compound	IC50 (DYRK1A [1]) [nM]	mode of DYRK1A inhibition (DYRK1A [2])
Cn1cc(-c2ccc3cnc4cc(C5CCOCC5)sc4c3c2)cn1 [Compound 72]	≤ 10	–
c1ncc(-c2ccc3cnc4cc(C5CCOCC5)sc4c3c2)o1 [Compound 73, 5-(2-(tetrahydro-2H-pyran-4-yl)thieno[3,2-c]isoquinolin-8-yl)oxazole]	10 to 100	–
Cn1cc(-c2ccc3cnc4c(c3c2)CCO4)cn1 [Compound 74, 8-(1-methyl-1H-pyrazol-4-yl)-1,2-dihydrofuro[2,3-c]isoquinoline]	10 to 100	–
c1ncc(-c2ccc3cnc4c(c3c2)CCO4)s1 [Compound 75, 8-(thiazol-5-yl)-1,2-dihydrofuro[2,3-c]isoquinoline]	10 to 100	–
Cn1cc(-c2ccc3cnc4occc4c3c2)cn1 [Compound 76, 8-(1-methyl-1H-pyrazol-4-yl)furo[2,3-c]isoquinoline]	10 to 100	–
c1nc2c(ncc3ccc(-c4cncs4)cc32)[nH]1 [Compound 77]	≤ 10	–
c1ncc(-c2ccc3cnc4cc(C5CCOCC5)sc4c3c2)s1 [Compound 78, 2-(tetrahydro-2H-pyran-4-yl)-8-(thiazol-5-yl)thieno[3,2-c]isoquinoline]	≤ 10	–
Cc1ncc(-c2ccc3cnc4cc(C5CCOCC5)sc4c3c2)s1 [Compound 79, 8-(2-methylthiazol-5-yl)-2-(tetrahydro-2H-pyran-4-yl)thieno[3,2-c]isoquinoline]	10 to 100	–
Cc1nc2ncc3ccc(-c4cnn(C)c4)cc3c2s1 [Compound 80]	100 to 1000	–
O=C(O[C@@H]1Cc2c(O)cc(O)cc2O[C@@H]1c1cc(O)c(O)c(O)c1)c1cc(O)c(O)c(O)c1 [EGCG, Epigallocatechin gallate]	–	non-ATP competitive DYRK1A inhibitor

Continued, in another order:

IC50 (DYRK1A [1]) [nM]	Compound	mode of DYRK1A inhibition (DYRK1A [2])
100 to 1000	Cn1cc(-c2ccc3cnc4nc(C5CCOCC5)sc4c3c2)cn1 [Compound 81, 8-(1-methyl-1H-pyrazol-4-yl)-2-(tetrahydro-2H-pyran-4-yl)thiazolo[4,5-c]isoquinoline]	–
100 to 1000	Cn1cc(-c2ccc3cnc4nc(C5CCOCC5)oc4c3c2)cn1 [Compound 82, 8-(1-methyl-1H-pyrazol-4-yl)-2-(tetrahydro-2H-pyran-4-yl)oxazolo[4,5-c]isoquinoline]	–
100 to 1000	O=C1Cc2c(ncc3cc(-c4cnco4)ccc23)N1 [Compound 83]	–
> 1000	Cn1cc(-c2ccc3c4c(ncc3c2)NC(=O)C4)cn1 [Compound 84, 7-(1-methyl-1H-pyrazol-4-yl)-1,3-dihydro-2H-pyrrolo[2,3-c]isoquinolin-2-one]	–
10 to 100	Cn1cc(-c2ccc3cnc4c(c3c2)CC(=O)N4)cn1 [Compound 85, 8-(1-methyl-1H-pyrazol-4-yl)-1,3-dihydro-2H-pyrrolo[2,3-c]isoquinolin-2-one]	–
10 to 100	c1ncc(-c2ccc3cnc4sc(C5CCN(CC6CC6)CC5)nc4c3c2)s1 [Compound 86, 2-(1-(cyclopropylmethyl)piperidin-4-yl)-8-(thiazol-5-yl)thiazolo[5,4-c]isoquinoline]	–
10 to 100	CC(C)CN1CCC(c2cc3c(ncc4ccc(-c5cncn5C)cc43)[nH]2)CC1 [Compound 87]	–
≤ 10	CC(C)CN1CCC(c2cc3c(ncc4ccc(-c5cncs5)cc43)[nH]2)CC1 [Compound 88, 5-(2-(1-isobutylpiperidin-4-yl)-3H-pyrrolo[2,3-c]isoquinolin-8-yl)thiazole]	–
10 to 100	CC(C)CN1CCC(c2cc3c(ncc4ccc(-c5cn[nH]c5)cc43)[nH]2)CC1 [Compound 89, 2-(1-isobutylpiperidin-4-yl)-8-(1H-pyrazol-4-yl)-3H-pyrrolo[2,3-c]isoquinoline]	–
100 to 1000	Cc1[nH]c2ncc3ccncc3c2c1-c1cccc(C(=O)O)c1 [Compound 95, 3-(8-methyl-7H-pyrrolo[2,3-c][2,6]naphthyridin-9-yl)benzoic acid]	–
